{"source": "patent US12343319B2", "about": "“Compositions and methods for treatment of diseases and disorders” (Atai Therapeutics Inc., priority 2023, dated 2025)", "key": {"[1]": {"system": "5-HT2A", "assay": "Ca++ (calcium mobilization), 5-HT2A", "type": "cell-based, human", "settings": "Ca++, human; calculated using ΔΔlog(Emax/EC50), reference = 1", "method": "(§1) In vitro pharmacology studies were performed to evaluate the effects of compound 2-1 on functional activity of several 5-HT receptors using recombinant target overexpression cell culture systems. The effect of compound 2-1 on G protein-dependent signaling was investigated at 5-HT2A, 5-HT2B, and 5-HT2C receptors with calcium mobilization and IPOne assays; and at 5-HT1A, 5-HT1B, 5-HT1F, 5-HT5A, and 5-HT7D receptors with a cAMP assay. G protein-independent signaling was investigated at the 5-HT2A receptor with a β-Arrestin assay.\n(§2) In vitro pharmacology studies were performed to evaluate the effects of compound 2-2 on functional activity at several 5-HT receptors using recombinant target overexpression cell culture systems. The effect of compound 2-2 on G protein-dependent signaling was investigated at 5-HT2A, 5-HT2B, and 5-HT2C receptors with calcium mobilization and IPOne assays; and at 5-HT1A, 5-HT1B, 5-HT1F, 5-HT5A, and 5-HT7D receptors with a cAMP assay. G protein-independent signaling was investigated at the 5-HT2A receptor with a β-arrestin assay. […] In Table 4, 5-HT receptor selectivity was calculated using ΔΔlog(Emax/EC50). Assay reference α-Me-5-HT or 5-HT was used for normalization at each receptor (5-HT2A/5-HT2B selectivity=1; 5-HT2A/5-HT2C selectivity=1). ND in Table 4 indicates, not determined, plateau was not reached within the concentration range tested to determine Emax."}, "[2]": {"target": "T1, 5-HT2C (Homo sapiens, UniProt P28335)", "T1 construct": "expressed in transfected cells", "T1 sequence (P28335 33-458)": "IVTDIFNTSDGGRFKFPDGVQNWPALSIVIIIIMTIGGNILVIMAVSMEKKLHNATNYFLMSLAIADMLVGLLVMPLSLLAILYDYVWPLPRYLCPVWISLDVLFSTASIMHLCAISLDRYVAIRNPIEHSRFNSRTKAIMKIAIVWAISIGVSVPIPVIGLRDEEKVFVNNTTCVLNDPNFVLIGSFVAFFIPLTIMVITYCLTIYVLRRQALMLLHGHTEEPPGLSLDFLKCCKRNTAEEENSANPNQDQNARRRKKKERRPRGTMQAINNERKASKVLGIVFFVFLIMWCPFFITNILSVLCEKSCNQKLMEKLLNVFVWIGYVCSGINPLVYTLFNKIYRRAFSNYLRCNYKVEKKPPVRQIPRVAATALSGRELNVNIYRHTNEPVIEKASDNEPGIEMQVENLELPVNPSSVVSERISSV", "assay": "Ca++ (calcium mobilization), 5-HT2C", "type": "cell-based", "settings": "for Emax: Ca++, human 5-HT2C, read-out: Emax (%5-HT)", "method": "as §1, §2"}, "[3]": {"target": "T2, 5-HT5A (Homo sapiens, UniProt P47898)", "T2 construct": "expressed in transfected cells", "T2 sequence (P47898 whole entry)": "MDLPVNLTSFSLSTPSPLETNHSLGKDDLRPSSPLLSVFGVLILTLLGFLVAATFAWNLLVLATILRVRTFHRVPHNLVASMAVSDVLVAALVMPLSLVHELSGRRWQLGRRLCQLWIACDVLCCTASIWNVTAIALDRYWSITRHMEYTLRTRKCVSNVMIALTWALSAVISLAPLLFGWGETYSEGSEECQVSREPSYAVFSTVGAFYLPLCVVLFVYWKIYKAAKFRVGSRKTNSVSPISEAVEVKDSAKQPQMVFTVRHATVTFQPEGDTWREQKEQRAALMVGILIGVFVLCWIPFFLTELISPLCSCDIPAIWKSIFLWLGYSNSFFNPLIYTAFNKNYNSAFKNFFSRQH", "assay": "cAMP, 5-HT5A", "type": "cell-based", "method": "as §1, §2"}, "[4]": {"system": "Male WKY rats", "assay": "Sleep-wake behavior, EEG power, body temperature and locomotor activity in WKY rats", "type": "in vivo, rat", "method": "Male WKY rats (n=7, 289-388 g at the start of dosing) were housed in groups of 2-3 animals per cage with standard housing conditions. For implantation of the EEG electrodes and radio transmitter, the animals were anesthetized with isoflurane (2-5% in oxygen at 11/min) throughout the procedure. The scalp, neck and right flank were cleared of hair using clippers and cleaned using diluted Hibitane (chlorhexidine, 50% (v/v) in water). A non-steroidal anti-inflammatory agent was administered (carprofen 5 mg/kg, s.c.) and the animals placed on a homeothermic blanket (37° C.) with the head fixed in a stereotaxic frame. Incisions were made in the scalp and neck, as well as in the right flank. Blunt dissection of the abdominal muscle was then made to gain access to the peritoneal cavity. A radio transmitter (HD-S02, Data Sciences International) was implanted in the peritoneal cavity and secured to the muscle wall with non-absorbable sutures. The wires of the transmitter were passed using a 19G needle through the muscle wall and then sub-dermally to the scalp to act as Electroencephalogram (EEG)/Electromyograph (EMG) electrodes. The scalp was cleared of connective tissue and two craniotomies were made with a trepanning drill (fronto-parietal coordinates; Bregma+2 mm anterior, midline+1.0 mm lateral and Lambda 0 mm, +1.5 mm lateral). The positive EEG electrode was attached to the anterior craniotomy and the negative EEG electrode to the posterior craniotomy. Both electrodes were secured in place using a suitable adhesive agent (cyanoacrylate gel, RS components). A second set of electrodes were sutured into the nuchal muscle to act as EMG electrodes. All incisions were closed using absorbable suture.\nAll animals were allowed to recover in a warm environment and given 5 ml of saline subcutaneously (s.c.). Animals were kept singly in the cage until the next day, then pair housed for the duration of post-surgical recovery (minimum 7 days). During the recovery period, the rats received 5 days of standard post-operative care with no further experimental procedures until the pre-operative body weight was regained. The animals were maintained on a 12/12 hour light dark cycle (08:00 am lights on) after the surgery. Home cages and post-operative cages contained bedding and nesting material, along with environmental enrichment such as wooden chew-sticks and plastic tunnels.\nOn test days, ˜60 minutes after lights-on, animals were placed in recording boxes similar to their home-cages, except that environmental enrichment was restricted to a large bundle of nesting and bedding material, to avoid interference with the telemeter signals. Then, data acquisition was initiated for confirmation of signal quality. EEG and EMG data were acquired using intraperitoneal HD-S02 transmitters (DSI, New Brighton, MN) and Spike2 software (CED). EEG and EMG signals were digitized 500 samples/second, amplified 1000× and bandpass filtered at 0.5-100 Hertz (Hz). After 60 minutes of habituation, each animal was briefly removed from its box and dosed via the intraperitoneal (i.p.) route in a volume of 2 mL/kg. Test conditions included saline vehicle, psilocybin (10 mg/kg) positive control, compound 2-1 at 3, 10 and 30 mg/kg and compound 2-2 at 10, 17 and 30 mg/kg. Doses were based on the molecular weight of the free bases. compound 2-1 and compound 2-2 dosing solutions were prepared in 40% (w/v) hydroxypropyl-beta-cyclodextrin. After dosing, animals were immediately put back into the recording boxes, the experimenter left the room, and recordings continued uninterrupted for 23 hours. At the end of the recording session, the transmitters were turned off and the animals were returned to their home cages. All animals received all treatment conditions in a pseudo randomized cross-over fashion with a minimum washout period of 7 days between doses.\nAll data was aligned to zero (the time of dosing), with epochs defined as non-overlapping 10-second time segments. […]"}, "[5]": {"target": "T3, 5-HT2A (Homo sapiens, UniProt P28223)", "T3 sequence (P28223 whole entry)": "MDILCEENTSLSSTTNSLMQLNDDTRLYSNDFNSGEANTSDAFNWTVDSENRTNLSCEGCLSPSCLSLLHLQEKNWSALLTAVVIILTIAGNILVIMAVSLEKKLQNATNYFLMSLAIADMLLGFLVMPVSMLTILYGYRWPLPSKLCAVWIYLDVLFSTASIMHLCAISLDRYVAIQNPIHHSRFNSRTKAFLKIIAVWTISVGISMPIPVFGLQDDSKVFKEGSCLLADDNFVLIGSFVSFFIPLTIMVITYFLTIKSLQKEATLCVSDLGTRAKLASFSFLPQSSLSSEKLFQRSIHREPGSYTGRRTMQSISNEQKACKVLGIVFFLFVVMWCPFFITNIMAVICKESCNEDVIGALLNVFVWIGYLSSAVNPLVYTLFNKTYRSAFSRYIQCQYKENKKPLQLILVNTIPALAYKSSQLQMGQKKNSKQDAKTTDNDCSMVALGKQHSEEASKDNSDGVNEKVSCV", "assay": "Radioligand binding, 5-HT2A", "parameters": "expressed in transfected cells", "settings": "for Max % inhibition: radioligand binding, human 5-HT2A"}, "[6]": {"target": "T3, 5-HT2A", "assay": "IPOne, 5-HT2A", "type": "cell-based", "parameters": "expressed in transfected cells", "settings": "for Emax: read-out: Emax (% α-Me-5-HT)", "method": "as §1, §2"}, "[7]": {"settings": "over 6 hours post dose, WKY rats, IP"}, "[8]": {"settings": "male WKY rats, IP, initial 4 hours following dosing"}}}
{"smiles": "COc1ccc(OC)c(CCNCc2cc(C)cc(F)c2)c1", "note": "[Compound 2-2, 2-(2,5-dimethoxyphenyl)-N-(3-fluoro-5-methylbenzyl)ethan-1-amine]", "values": [{"measurement": "5-HT2A/5-HT2C Selectivity", "setting": "[1]", "value": 56}, {"measurement": "EC50", "setting": "[2]", "value": 73.5, "unit": "nM"}, {"measurement": "Emax", "setting": "[2]", "value": 88.2, "unit": "%"}, {"measurement": "EC50", "setting": "[3]", "value": "> 30000", "unit": "nM"}, {"measurement": "effects on body temperature and locomotor activity", "setting": "[4]; male WKY rats", "value": "minimal effects"}, {"measurement": "Locomotor activity", "setting": "[4]; [7]", "value": "No Δ (No significant change)"}, {"measurement": "IC50", "setting": "[5]", "value": 105, "unit": "nM"}, {"measurement": "Max % inhibition", "setting": "[5]", "value": 99, "unit": "%"}, {"measurement": "EC50", "setting": "[6]", "value": 9.19, "unit": "nM"}, {"measurement": "Emax", "setting": "[6]", "value": 97.9, "unit": "%"}]}
{"smiles": "COc1ccc(OC)c(CCNCc2cc(C)cc(Cl)c2)c1", "note": "[Compound 2-1, N-(3-chloro-5-methylbenzyl)-2-(2,5-dimethoxyphenyl)ethan-1-amine]", "values": [{"measurement": "5-HT2A/5-HT2C Selectivity", "setting": "[1]", "value": 77}, {"measurement": "EC50", "setting": "[2]", "value": 42.2, "unit": "nM"}, {"measurement": "Emax", "setting": "[2]", "value": 82, "unit": "%"}, {"measurement": "EC50", "setting": "[3]", "value": 25.2, "unit": "nM"}, {"measurement": "Emax", "setting": "[3]; cAMP, human 5-HT5A, read-out: Emax (%5-HT)", "value": 44.4, "unit": "%"}, {"measurement": "agonist activity (in words)", "setting": "[3]; human 5-HT5A receptor", "value": "partial agonist activity"}, {"measurement": "non-REM sleep amount vs vehicle", "setting": "[4]; 3 mg/kg i.p., interval starting at 5 hours post dose", "value": "significantly increased"}, {"measurement": "latency to non-REM (NREM) sleep vs vehicle", "setting": "[4]; 10 mg/kg i.p.", "value": "significantly increased"}, {"measurement": "persistence of significant effect on delta power during non-REM sleep", "setting": "[4]; 30 mg/kg i.p.", "value": "persisted through the period starting at 4 hours post dose"}, {"measurement": "high gamma power during waking", "setting": "[4]; 30 mg/kg i.p., over 24 hours post dose", "value": "significant and lasting decrease"}, {"measurement": "amount of time spent in wake vs vehicle", "setting": "[4]; 3, 10 and 30 mg/kg i.p.", "value": "significantly increased"}, {"measurement": "amount of time spent in non-REM sleep vs vehicle", "setting": "[4]; 3, 10 and 30 mg/kg i.p., first 3 hours after administration", "value": "significantly decreased"}, {"measurement": "low frequency (delta and theta) power during non-REM sleep", "setting": "[4]; 3, 10 and 30 mg/kg i.p., post-dose period 0-2 hours", "value": "significantly decreased"}, {"measurement": "latency to REM sleep vs vehicle", "setting": "[4]; 10 and 30 mg/kg i.p.", "value": "significantly increased"}, {"measurement": "amount of time spent in REM sleep vs vehicle", "setting": "[4]; 10 and 30 mg/kg i.p., starting in the third hour post dose", "value": "significantly decreased"}, {"measurement": "waking high gamma power", "setting": "[4]; [8]", "value": "decreased"}, {"measurement": "waking theta and beta power", "setting": "[4]; [8]", "value": "significantly increased"}, {"measurement": "body temperature", "setting": "[4]; [7]", "value": "↓ (for 6 h)"}, {"measurement": "IC50", "setting": "[5]", "value": 42.4, "unit": "nM"}, {"measurement": "Max % inhibition", "setting": "[5]", "value": 96.93, "unit": "%"}, {"measurement": "EC50", "setting": "[6]", "value": 2.8, "unit": "nM"}, {"measurement": "Emax", "setting": "[6]", "value": 99.4, "unit": "%"}]}
